This note sets out measurements from ChEMBL document CHEMBL1153294, “The use of oxadiazole and triazole substituted naphthyridines as HIV-1 integrase inhibitors. Part 1: Establishing the pharmacophore” (Bioorg Med Chem Lett, 2009).

Usually EC50 stands for the concentration at which the effect is half-maximal. A low value points to a more potent agent. By IC50 is commonly meant the midpoint of a concentration-inhibition curve.

For assay [1], the system named is Human immunodeficiency virus. Put plainly: Antiviral activity against HIV by pseudo-type HIV assay. The format is functional, organism-based. Conditions: Human immunodeficiency virus 1.
For assay [2], the target named is Human immunodeficiency virus type 1 integrase (Human immunodeficiency virus 1, UniProt Q7ZJM1). Put plainly: Inhibition of HIV1 recombinant integrase strand transfer activity.
Chain of Human immunodeficiency virus type 1 integrase (Q7ZJM1 whole entry): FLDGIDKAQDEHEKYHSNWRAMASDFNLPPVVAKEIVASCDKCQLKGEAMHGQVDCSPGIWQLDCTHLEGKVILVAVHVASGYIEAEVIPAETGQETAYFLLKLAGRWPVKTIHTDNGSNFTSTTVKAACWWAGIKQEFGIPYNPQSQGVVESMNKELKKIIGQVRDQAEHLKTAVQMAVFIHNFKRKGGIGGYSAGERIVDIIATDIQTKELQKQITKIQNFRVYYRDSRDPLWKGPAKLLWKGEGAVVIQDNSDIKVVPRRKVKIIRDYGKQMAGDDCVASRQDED

In assay [1], `O=S1(=O)CCCCN1c1nc(-c2nnc(Cc3ccc(F)cc3)o2)c(O)c2ncccc12` displayed an EC50 of 0.013 µM. The IC50 in assay [2] turned out to be 0.002 µM. The corresponding values for `O=S1(=O)CCCCN1c1nc(-c2nnc(Cc3ccc(F)cc3)[nH]2)c(O)c2ncccc12` are 0.24 µM and 0.011 µM. Regarding `Cn1nc(-c2ncc3cccnc3c2O)nc1Cc1ccc(F)cc1`, in assay [2], the IC50 is 7.9 µM. Same read-out and setting: the same measure for `Oc1c(-c2noc(-c3ccccc3)n2)ncc2cccnc12`: more than 100 µM. As for `Oc1c(-c2nnc(Cc3ccc(F)cc3)[nH]2)ncc2cccnc12`, in assay [1], the midpoint of the response, the EC50, lay at 0.32 µM. Also, in assay [2], the IC50 was 0.13 µM. The corresponding values for `Oc1c(-c2nnc(Cc3cccc(Cl)c3)[nH]2)ncc2cccnc12` are 1 µM and 1.03 µM. On the same counts, the results for `Oc1c(-c2noc(Cc3ccc(F)cc3)n2)ncc2cccnc12` are 0.22 µM and 0.13 µM. As to `Oc1c(-c2nnc(Cc3ccc(F)cc3)o2)ncc2cccnc12`, in assay [1], the EC50 is 0.13 µM. The IC50 in assay [2] was determined as 0.042 µM.

As to `O=C(NCc1ccc(F)cc1)c1nc(N2CCCCS2(=O)=O)c2cccnc2c1O`, in assay [1], the EC50 was 0.002 µM. The molecule `Oc1c(-c2nnc(Cc3ccncc3)[nH]2)ncc2cccnc12` showed an EC50 in assay [1] of more than 35 µM. In addition, in assay [2], the IC50 came to 4.6 µM. On the same counts, the results for `COc1ccc(Cc2nnc(-c3ncc4cccnc4c3O)[nH]2)cc1OC` are more than 35 µM and 6.3 µM. On to `O=S1(=O)CCCCN1c1nc(-c2noc(Cc3ccc(F)cc3)n2)c(O)c2ncccc12`, for which the IC50 in assay [2] is more than 100 µM. Take `Oc1c(-c2noc(Cc3ccccc3)n2)ncc2cccnc12`: a half-maximal response in assay [1] (EC50) required 1.9 µM. For the same molecule, in assay [2], the IC50 came to 0.95 µM.

In assay [1], `Oc1c(-c2nnc(CCc3ccccc3)[nH]2)ncc2cccnc12` gave an EC50 of more than 20 µM. Moreover, the IC50 in assay [2] stood at 2.4 µM. Molecule `Oc1c(-c2nnc(Cc3ccccc3)o2)ncc2cccnc12` returned an EC50 in assay [1] of 0.42 µM. The IC50 in assay [2] was determined as 0.13 µM. On the same counts, the results for `Oc1c(-c2nnc(Cc3ccc(Cl)cc3)[nH]2)ncc2cccnc12` are 1 µM and 0.64 µM. The corresponding values for `Oc1c(-c2nnc(Cc3cccnc3)[nH]2)ncc2cccnc12` are 6.4 µM and 3.5 µM. In the case of `Cn1nc(Cc2ccc(F)cc2)nc1-c1ncc2cccnc2c1O`, the IC50 in assay [2] was more than 500 µM. With `O=C(NCc1ccc(F)cc1)c1ncc2cccnc2c1O`, in assay [1], the EC50 was determined as 0.075 µM. Moreover, in assay [2], the IC50 is 0.012 µM. The molecule `Oc1c(-c2nnc(Cc3ccccc3)[nH]2)ncc2cccnc12` came in with an EC50 in assay [1] of 8.7 µM. In addition, in assay [2], the IC50 was determined as 0.36 µM. The corresponding values for `COc1cccc(Cc2nnc(-c3ncc4cccnc4c3O)[nH]2)c1` are more than 35 µM and 2.8 µM.
